Experimental data reported in patent US10669285B2, “Condensed [1,4] diazepine compounds as autotaxin (ATX) and lysophosphatidic acid (LPA) production inhibitors” (Hoffmann-La Roche Inc., priority 2014, dated 2020).

target: ATX (human His-tagged) (Homo sapiens (Human), UniProt Q13822); experiment: Human ATX enzyme inhibition assay (fluorescence quenching, MR121 substrate); assay type: biochemical; conditions: inhibitory activity against ATX; 30 nM ATX, 1 μM MR121 substrate, 30° C.
Method: Human ATX Enzyme Inhibition Assay
ATX inhibition was measured by a fluorescence quenching assay using a specifically labeled substrate analogue (MR121 substrate). To obtain this MR121 substrate, BOC and TBS protected 6-amino-hexanoic acid (R)-3-({2-[3-(2-{2-[2-(2-amino-ethoxy)-ethoxy]-ethoxy}-ethoxy)-propionylamino]-ethoxy}-hydroxy-phosphoryloxy)-2-hydroxy-propyl ester (Ferguson et al., Org Lett 2006, 8 (10), 2023) was labeled with MR121 fluorophore (CAS 185308-24-1, 1-(3-carboxypropyl)-11-ethyl-1,2,3,4,8,9,10,11-octahydro-dipyrido[3,2-b:2′,3′-i]phenoxazin-13-ium) on the free amine of the ethanolamine side and then, after deprotection, subsequently with tryptophan on the side of the aminohexanoic acid.
Assay working solutions were made as follows:
Assay buffer (50 mM Tris-HCl, 140 mM NaCl, 5 mM KCl, 1 mM CaCl2, 1 mM MgCl2, 0.01% Triton-X-100, pH 8.0;
ATX solution: ATX (human His-tagged) stock solution (1.08 mg/mL in 20 mM bicine, pH 8.5, 0.15 M NaCl, 10% glycerol, 0.3% CHAPS, 0.02% NaN3), diluted to 1.4-2.5× final concentration in assay buffer;
MR121 substrate solution: MR121 substrate stock solution (800 μM MR121 substrate in DMSO), diluted to 2-5× final concentration in assay buffer.
Test compounds (10 mM stock in DMSO, 8 μL) were obtained in 384 well sample plates (Corning Costar #3655) and diluted with 8 μL DMSO. Row-wise serial dilutions were made by transferring 8 μL cpd solution to the next row up to […]. The compound and control solutions were mixed five times and 2 μL were transferred to 384 well assay plates (Corning Costar #3702). Then, 15 μL of 41.7 nM ATX solution was added (30 nM final concentration), mixed five times and then incubated for 15 minutes at 30° C. 10 μL of MR121 substrate solution was added (1 μM final concentration), mixed 30 times and then incubated for 15 minutes at 30° C. Fluorescence was then measured every 2 minutes for 1 hour (Perkin Elmer plate: vision multimode reader); light intensity: 2.5%; exp. time: 1.4 sec, Filter: Fluo_630/690 nm) and IC50 values were calculated from these readouts.

Structure (SMILES) | IC50 [nM]
O=C(OCc1ccccc1)N1CCc2cc(C(=O)N3CCc4[nH]nnc4C3)nn2CC1 [Example 1, Benzyl 2-(1,4,6,7-tetrahydrotriazolo[4,5-c]pyridine-5-carbonyl)-4,5,7,8-tetrahydropyrazolo[1,5-d][1,4]diazepine-6-carboxylate] | 158
O=C(OCc1ccccc1)N1CCc2nc(C(=O)N3CCc4[nH]nnc4C3)cn2CC1 [Example 2, Benzyl 2-(1,4,6,7-tetrahydrotriazolo[4,5-c]pyridine-5-carbonyl)-5,6,8,9-tetrahydroimidazo[1,2-d][1,4]diazepine-7-carboxylate] | 2010
O=C(OCc1ccc(OC(F)(F)F)c(F)c1)N1CCc2cc(C(=O)N3CCc4[nH]nnc4C3)nn2CC1 [Example 3, [3-Fluoro-4-(trifluoromethoxy)phenyl]methyl 2-(1,4,6,7-tetrahydrotriazolo[4,5-c]pyridine-5-carbonyl)-4,5,7,8-tetrahydropyrazolo[1,5-d][1,4]diazepine-6-carboxylate] | 18
O=C(OCc1ccc(OC(F)(F)F)cc1F)N1CCc2cc(C(=O)N3CCc4[nH]nnc4C3)nn2CC1 [Example 4, 2-Fluoro-4-(trifluoromethoxy)benzyl 2-(4,5,6,7-tetrahydro-1H-[1,2,3]triazolo[4,5-c]pyridine-5-carbonyl)-7,8-dihydro-4H-pyrazolo[1,5-d][1,4]diazepine-6(5H)-carboxylate] | 7
O=C(OCc1ccc(OC(F)(F)F)cc1)N1CCc2cc(C(=O)N3CCc4[nH]nnc4C3)nn2CC1 [Example 5, [4-(Trifluoromethoxy)phenyl]methyl 2-(1,4,6,7-tetrahydrotriazolo[4,5-c]pyridine-5-carbonyl)-4,5,7,8-tetrahydropyrazolo[1,5-d][1,4]diazepine-6-carboxylate] | 2
N#Cc1ccc(COC(=O)N2CCc3cc(C(=O)N4CCc5[nH]nnc5C4)nn3CC2)cc1 [Example 6, 4-Cyanobenzyl 2-(4,5,6,7-tetrahydro-1H-[1,2,3]triazolo[4,5-c]pyridine-5-carbonyl)-7,8-dihydro-4H-pyrazolo[1,5-d][1,4]diazepine-6(5H)-carboxylate] | 4
N#Cc1ccc(COC(=O)N2CCc3cc(C(=O)N4CCc5[nH]nnc5C4)nn3CC2)cc1F [Example 7, 4-Cyano-3-fluorobenzyl 2-(4,5,6,7-tetrahydro-1H-[1,2,3]triazolo[4,5-c]pyridine-5-carbonyl)-7,8-dihydro-4H-pyrazolo[1,5-d][1,4]diazepine-6(5H)-carboxylate] | 70
N#Cc1ccc(COC(=O)N2CCc3cc(C(=O)N4CCc5[nH]nnc5C4)nn3CC2)c(F)c1 [Example 8, 4-Cyano-2-fluorobenzyl 2-(4,5,6,7-tetrahydro-1H-[1,2,3]triazolo[4,5-c]pyridine-5-carbonyl)-7,8-dihydro-4H-pyrazolo[1,5-d][1,4]diazepine-6(5H)-carboxylate] | 60
CC(C)c1cc(C#N)ccc1COC(=O)N1CCc2cc(C(=O)N3CCc4[nH]nnc4C3)nn2CC1 [Example 9, (4-Cyano-2-propan-2-ylphenyl)methyl 2-(1,4,6,7-tetrahydrotriazolo[4,5-c]pyridine-5-carbonyl)-4,5,7,8-tetrahydropyrazolo[1,5-d][1,4]diazepine-6-carboxylate] | 6
CC(C)(C)C(=O)Nc1cc(C#N)ccc1COC(=O)N1CCc2cc(C(=O)N3CCc4[nH]nnc4C3)nn2CC1 [Example 10, [4-Cyano-2-(2,2-dimethylpropanoylamino)phenyl]methyl 2-(1,4,6,7-tetrahydrotriazolo[4,5-c]pyridine-5-carbonyl)-4,5,7,8-tetrahydropyrazolo[1,5-d][1,4]diazepine-6-carboxylate] | 18
O=C(OCc1ccc(OC(F)(F)F)cc1)N1CCc2nc(C(=O)N3CCc4[nH]nnc4C3)nn2CC1 [Example 11, [4-(Trifluoromethoxy)phenyl]methyl 2-(1,4,6,7-tetrahydrotriazolo[4,5-c]pyridine-5-carbonyl)-5,6,8,9-tetrahydro-[1,2,4]triazolo[1,5-d][1,4]diazepine-7-carboxylate] | 15
CC(C)(C)C(=O)Nc1cc(C#N)ccc1COC(=O)N1CCc2nc(C(=O)N3CCc4[nH]nnc4C3)nn2CC1 [Example 12, [4-Cyano-2-(2,2-dimethylpropanoylamino)phenyl]methyl 2-(1,4,6,7-tetrahydrotriazolo[4,5-c]pyridine-5-carbonyl)-5,6,8,9-tetrahydro-[1,2,4]triazolo[1,5-d][1,4]diazepine-7-carboxylate] | 67

Other lines, results leading:

IC50 [nM] | Structure (SMILES)
17 | O=C(OCc1ccc(OC(F)(F)F)cc1)N1CCc2nc(C(=O)N3CCc4[nH]nnc4C3)cn2CC1 [Example 13, [4-(Trifluoromethoxy)phenyl]methyl 2-(1,4,6,7-tetrahydrotriazolo[4,5-c]pyridine-5-carbonyl)-5,6,8,9-tetrahydroimidazo[1,2-d][1,4]diazepine-7-carboxylate]
14 | O=C(CCc1ccc(OC(F)(F)F)cc1)N1CCc2cc(C(=O)N3CCc4[nH]nnc4C3)nn2CC1 [Example 14, 1-[2-(1,4,6,7-tetrahydrotriazolo[4,5-c]pyridine-5-carbonyl)-4,5,7,8-tetrahydropyrazolo[1,5-d][1,4]diazepin-6-yl]-3-[4-(trifluoromethoxy)phenyl]propan-1-one]
11 | N#Cc1ccc(OCC(=O)N2CCc3cc(C(=O)N4CCc5[nH]nnc5C4)nn3CC2)c(C2CC2)c1 [Example 15, 3-Cyclopropyl-4-(2-oxo-2-(2-(4,5,6,7-tetrahydro-1H-[1,2,3]triazolo[4,5-c]pyridine-5-carbonyl)-7,8-dihydro-4H-pyrazolo[1,5-d][1,4]diazepin-6(5H)-yl)ethoxy)benzonitrile]
12 | CCc1cc(C#N)ccc1OCC(=O)N1CCc2cc(C(=O)N3CCc4[nH]nnc4C3)nn2CC1 [Example 16, 3-Ethyl-4-(2-oxo-2-(2-(4,5,6,7-tetrahydro-1H-[1,2,3]triazolo[4,5-c]pyridine-5-carbonyl)-7,8-dihydro-4H-pyrazolo[1,5-d][1,4]diazepin-6(5H)-yl)ethoxy)benzonitrile]
10 | CC(C)(C)c1cc(C#N)ccc1OCC(=O)N1CCc2cc(C(=O)N3CCc4[nH]nnc4C3)nn2CC1 [Example 17, 3-tert-Butyl-4-[2-oxo-2-[2-(1,4,6,7-tetrahydrotriazolo[4,5-c]pyridine-5-carbonyl)-4,5,7,8-tetrahydropyrazolo[1,5-d][1,4]diazepin-6-yl]ethoxy]benzonitrile]
13 | O=C(CCc1ccc(OC(F)(F)F)c(F)c1)N1CCc2cc(C(=O)N3CCc4[nH]nnc4C3)nn2CC1 [Example 18, 3-[3-fluoro-4-(trifluoromethoxy)phenyl]-1-[2-(1,4,6,7-tetrahydrotriazolo[4,5-c]pyridine-5-carbonyl)-4,5,7,8-tetrahydropyrazolo[1,5-d][1,4]diazepin-6-yl]propan-1-one]
151 | COc1ccc(CCC(=O)N2CCc3cc(C(=O)N4CCc5[nH]nnc5C4)nn3CC2)cc1 [Example 19, 3-(4-methoxyphenyl)-1-[2-(1,4,6,7-tetrahydrotriazolo[4,5-c]pyridine-5-carbonyl)-4,5,7,8-tetrahydropyrazolo[1,5-d][1,4]diazepin-6-yl]propan-1-one]
6 | O=C(CCc1ccc(OC(F)(F)F)cc1)N1CCc2nc(C(=O)N3CCc4[nH]nnc4C3)nn2CC1 [Example 20, 1-[2-(1,4,6,7-tetrahydrotriazolo[4,5-c]pyridine-5-carbonyl)-5,6,8,9-tetrahydro-[1,2,4]triazolo[1,5-d][1,4]diazepin-7-yl]-3-[4-(trifluoromethoxy)phenyl]propan-1-one]
17 | O=C(CCc1ccc(OC(F)(F)F)c(F)c1)N1CCc2nc(C(=O)N3CCc4[nH]nnc4C3)nn2CC1 [Example 21, 3-[3-fluoro-4-(trifluoromethoxy)phenyl]-1-[2-(1,4,6,7-tetrahydrotriazolo[4,5-c]pyridine-5-carbonyl)-5,6,8,9-tetrahydro-[1,2,4]triazolo[1,5-d][1,4]diazepin-7-yl]propan-1-one]
18 | O=C(CCc1ccc(OC(F)(F)F)c(Cl)c1)N1CCc2cc(C(=O)N3CCc4[nH]nnc4C3)nn2CC1 [Example 22, 3-[3-chloro-4-(trifluoromethoxy)phenyl]-1-[2-(1,4,6,7-tetrahydrotriazolo[4,5-c]pyridine-5-carbonyl)-4,5,7,8-tetrahydropyrazolo[1,5-d][1,4]diazepin-6-yl]propan-1-one]
50 | O=C(CCc1ccc(OC(F)(F)F)c(Cl)c1)N1CCc2nc(C(=O)N3CCc4[nH]nnc4C3)nn2CC1 [Example 23, 3-[3-chloro-4-(trifluoromethoxy)phenyl]-1-[2-(1,4,6,7-tetrahydrotriazolo[4,5-c]pyridine-5-carbonyl)-5,6,8,9-tetrahydro-[1,2,4]triazolo[1,5-d][1,4]diazepin-7-yl]propan-1-one]
